Measurements published in ChEMBL document CHEMBL1136447, “Biological investigation and structure-activity relationship studies on azadirone from Azadirachta indica A. Juss” (2003).

Columns and labels:
U-251 [1] = test: In vitro cytotoxic activity against CNS(U251) cell line at a concentration of 10e-5 M; assay type: functional, Homo sapiens
SW-620 [2] = test: In vitro cytotoxic activity against colon (SW620) cell line at a concentration of 10e-5 M; assay type: functional, Homo sapiens
DU-145 [3] = test: In vitro cytotoxic activity against prostate (DU145) cell line at a concentration of 10e-5 M; assay type: functional, Homo sapiens
A498 [4] = test: In vitro cytotoxic activity against renal (A498) cell line at a concentration of 10e-5 M; assay type: functional, Homo sapiens
NCI-H522 [5] = test: In vitro cytotoxicity against H522 (human adenocarcinoma) cell line at a concentration of 10e-5 M.
M14 [6] = test: In vitro cytotoxic activity against Melanoma (M14) cell line at a concentration of 10e-5 M; assay type: functional, Homo sapiens
SK-OV-3 [7] = test: In vitro cytotoxic activity against Ovarian (SK-OV3) cell line at a concentration of 10e-5 M; assay type: functional, Homo sapiens
MCF7 [8] = test: In vitro cytotoxic activity against breast (MCF-7/ADR) cell line at a concentration of 10e-5 M; assay type: functional, Homo sapiens
NCI-H522 [9] = test: In vitro cytotoxic activity against lung (H522) cell line; settings: Homo sapiens
A498 [10] = test: In vitro cytotoxic activity against renal (A498) cell line; assay type: functional; settings: Homo sapiens
M14 [11] = test: In vitro cytotoxic activity against Melanoma (M14) cell line; assay type: functional; settings: Homo sapiens
DU-145 [12] = test: In vitro cytotoxic activity against prostate (DU145) cell line; assay type: functional; settings: Homo sapiens
U-251 [13] = test: In vitro cytotoxic activity against CNS(U251) cell line; assay type: functional; settings: Homo sapiens
SK-OV-3 [14] = test: In vitro cytotoxic activity against Ovarian (SK-OV3) cell line; assay type: functional; settings: Homo sapiens
MCF7 [15] = test: In vitro cytotoxic activity against breast (MCF-7/ADR) cell line; assay type: functional; settings: Homo sapiens
SW-620 [16] = test: In vitro cytotoxic activity against colon (SW620) cell line; assay type: functional; settings: Homo sapiens
NCI-H522 [17] = test: In vitro cytotoxic activity against lung (H522) cell line at a concentration of 10e-5 M

| Compound | Growth (U-251 [1]) [%] | Growth (SW-620 [2]) [%] | Growth (DU-145 [3]) [%] | Growth (A498 [4]) [%] | Growth (NCI-H522 [5]) [%] | Growth (M14 [6]) [%] | Growth (SK-OV-3 [7]) [%] | Growth (MCF7 [8]) [%] | GI50 (NCI-H522 [9]) [µM] | GI50 (A498 [10]) [µM] | GI50 (M14 [11]) [µM] | GI50 (DU-145 [12]) [µM] | GI50 (U-251 [13]) [µM] | GI50 (SK-OV-3 [14]) [µM] | GI50 (MCF7 [15]) [µM] | GI50 (SW-620 [16]) [µM] | Growth (NCI-H522 [17]) [%] |
| --- | --- | --- | --- | --- | --- | --- | --- | --- | --- | --- | --- | --- | --- | --- | --- | --- | --- |
| CC1(C)C(=O)C=C[C@@]2(C)C1C[C@@H](OC(=O)/C=C\c1ccccc1)[C@@]1(C)C3=CC[C@@H](c4ccoc4)[C@]3(C)CCC21 (stereo partly drawn) | 41 | 86 | 81 | 48 | 69 | 41 | 86 | 55 | – | – | – | – | – | – | – | – | – |
| CC(=O)OC1C=C[C@@]2(C)C(C[C@@H](OC(C)=O)[C@@]3(C)C4=CC[C@@H](c5ccoc5)[C@]4(C)CCC23)C1(C)C (stereo partly drawn) | 46 | 59 | 74 | 69 | 86 | 76 | 19.3 | 78 | – | – | – | – | – | – | – | – | – |
| CC1(C)C(=O)C=C[C@@]2(C)C1C[C@@H](OC(=O)Nc1ccccc1)[C@@]1(C)C3=CC[C@@H](c4ccoc4)[C@]3(C)CCC21 (stereo partly drawn) | 71 | 64 | 76 | 100 | 51 | 74 | 100 | 55 | – | – | – | – | – | – | – | – | – |
| CC1(C)C(=O)C=C[C@@]2(C)C1C[C@@H](O)[C@@]1(C)C3=CC[C@@H](c4ccoc4)[C@]3(C)CCC21 (stereo partly drawn) | 46 | 100 | 46 | 65 | 100 | 15.8 | 64 | 36 | > 100 | > 100 | 9 | 9.5 | 3.5 | > 100 | 5 | > 100 | – |
| CC1(C)C(=O)C=C[C@@]2(C)C1C[C@@H](OC(=O)C(F)(F)F)[C@@]1(C)C3=CC[C@@H](c4ccoc4)[C@]3(C)CCC21 (stereo partly drawn) | 52 | 60 | 77 | 59 | 75 | 86 | 49 | 54 | – | – | – | – | – | – | – | – | – |
| CCC(=O)O[C@@H]1CC2C(C)(C)C(=O)C=C[C@]2(C)C2CC[C@]3(C)C(=CC[C@H]3c3ccoc3)[C@@]21C (stereo partly drawn) | 40 | 51 | 67 | 67 | 48 | 39 | 61 | 29 | – | – | – | – | – | – | – | – | – |
| CC1(C)C(=O)C=C[C@@]2(C)C1C[C@@H](OC(=O)CCl)[C@@]1(C)C3=CC[C@@H](c4ccoc4)[C@]3(C)CCC21 (stereo partly drawn) | 22 | 12 | 13 | -8 | – | -3 | 14 | -2 | 4 | 4 | 5 | 5 | 6 | 5 | 3 | 5 | 5 |
| CC1(C)C(O)C=C[C@@]2(C)C1C[C@@H](O)[C@@]1(C)C3=CC[C@@H](c4ccoc4)[C@]3(C)CCC21 (stereo partly drawn) | 100 | 79.6 | 100 | 88.2 | 97 | 100 | 100 | 76 | – | – | – | – | – | – | – | – | – |
| CC(=O)O[C@@H]1CC2C(C)(C)C(=O)[C@@H]3O[C@@H]3[C@]2(C)C2CC[C@]3(C)C(=CC[C@H]3c3ccoc3)[C@@]21C (stereo partly drawn) | 100 | 100 | 63.1 | 42.7 | 69.6 | 100 | 100 | 59.3 | – | – | – | – | – | – | – | – | – |
| CCOC1=C[C@@]2(C)C(C[C@@H](OC(C)=O)[C@@]3(C)C4=CC[C@@H](c5ccoc5)[C@]4(C)CCC23)C(C)(C)C1=O (stereo partly drawn) | 70 | 65 | 35 | 33 | 52 | 40 | 61 | 51 | 30 | 40 | 20 | 50 | 5 | 40 | 8 | 5 | – |
| CCO[C@@H]1CC2C(C)(C)C(=O)C=C[C@]2(C)C2CC[C@]3(C)C(=CC[C@H]3c3ccoc3)[C@@]21C (stereo partly drawn) | 63 | 81 | 76 | 45 | 69 | 61 | 100 | 66 | – | – | – | – | – | – | – | – | – |
| CC(=O)O[C@@H]1CC2C(C)(C)C(=O)C=C[C@]2(C)C2CC[C@]3(C)C(=CC[C@H]3C3=CC(=O)OC3O)[C@@]21C.CC(=O)O[C@@H]1CC2C(C)(C)C(=O)C=C[C@]2(C)C2CC[C@]3(C)C(=CC[C@H]3C3=CC(O)OC3=O)[C@@]21C (stereo partly drawn) | 44.3 | 100 | 24.8 | 70.3 | 73.3 | 71.3 | 41.6 | -13 | – | – | – | – | – | – | – | – | – |
| COC1=C[C@@]2(C)C(C[C@@H](OC(C)=O)[C@@]3(C)C4=CC[C@@H](c5ccoc5)[C@]4(C)CCC23)C(C)(C)C1=O (stereo partly drawn) | 63 | 35 | 47 | 50 | 82 | 67 | 38 | 58 | 40 | 40 | 40 | 40 | 20 | 35 | 95 | 20 | – |
| CCN(CC)CCO/N=C1\C=C[C@@]2(C)C(C[C@@H](OC(C)=O)[C@@]3(C)C4=CC[C@@H](c5ccoc5)[C@]4(C)CCC23)C1(C)C (stereo partly drawn) | 5 | 23 | 46 | 7 | 26 | 35 | 7 | 28 | 3 | 8 | 4 | 7 | 4 | 3 | 6 | 4 | – |
| CC(C)C(=O)O[C@@H]1CC2C(C)(C)C(=O)C=C[C@]2(C)C2CC[C@]3(C)C(=CC[C@H]3c3ccoc3)[C@@]21C (stereo partly drawn) | 40 | 61 | 69 | 74 | 54 | 95 | 84 | 57 | – | – | – | – | – | – | – | – | – |
| CC(=O)O[C@@H]1CC2C(C)(C)/C(=N/O)C=C[C@]2(C)C2CC[C@]3(C)C(=CC[C@H]3c3ccoc3)[C@@]21C (stereo partly drawn) | 5 | 47 | 56 | 20 | 44 | 38 | 87 | 55 | – | – | – | – | – | – | – | – | – |
| COc1ccc(/C=C\C(=O)O[C@@H]2CC3C(C)(C)C(=O)C=C[C@]3(C)C3CC[C@]4(C)C(=CC[C@H]4c4ccoc4)[C@@]32C)cc1OC (stereo partly drawn) | 77 | 62 | 25 | 5 | 63 | 39 | 85 | 66 | – | – | – | – | – | – | – | – | – |
| CCOC1=C[C@@]2(C)C(C[C@@H](O)[C@@]3(C)C4=CC[C@@H](c5ccoc5)[C@]4(C)CCC23)C(C)(C)C1=O (stereo partly drawn) | 54 | 36 | 84 | 52 | 57 | 67 | 67 | 17 | – | – | – | – | – | – | – | – | – |
| CC(C)(C)OC(=O)NCC(=O)O[C@@H]1CC2C(C)(C)C(=O)C=C[C@]2(C)C2CC[C@]3(C)C(=CC[C@H]3c3ccoc3)[C@@]21C (stereo partly drawn) | 53 | 67 | 63 | 33 | – | 58 | 48 | 62 | 15 | 12 | 20 | 20 | 50 | 65 | 60 | 20 | 53 |
| CCCC(=O)O[C@@H]1CC2C(C)(C)C(=O)C=C[C@]2(C)C2CC[C@]3(C)C(=CC[C@H]3c3ccoc3)[C@@]21C (stereo partly drawn) | 15 | 49 | 68 | 43 | 40 | 59 | 90 | 57 | – | – | – | – | – | – | – | – | – |
